Patent US8916702B2 (priority 2012, dated 2014)

tested on: HCV pseudoparticles (genotype 1a HCV E1 and E2 envelope, H77C isolate); assay: microbe, parasite or virus in culture; format: cell-based; settings: Hepatitis C virus, Huh-7, 48 h, HCV pseudoparticle infection of Huh7 cells, luciferase 2 days after infection; average of duplicates

| SMILES | EC50 [nM] |
| --- | --- |
| C[C@]12C3C1[C@H]3C[C@H]2NC(=O)C(=O)NC[C@H](NC(=O)c1ccc(Nc2nc(NC3(c4ccc(Cl)cc4)CC3)nc(OCC(F)(F)F)n2)cc1)C(=O)O (some centres unmarked) [Compound 1084] | 0.26 |
| COC(=O)[C@H](CNC(=O)C(=O)NCc1cccc(OC)c1)NC(=O)c1ccc(Nc2nc(NC3(c4ccc(Cl)cc4)CC3)nc(OCC(F)(F)F)n2)cc1 [Compound 1151] | 1.62 |
| C=Cc1ccc(NC(=O)C(=O)NCC(C)(C)CNC(=O)c2ccc(Nc3nc(NC4(c5ccc(Cl)cc5)CC4)nc(OCC(F)(F)F)n3)cc2)cc1 [Compound 1604] | 0.02 |
| COc1ccc(NC(=O)C(=O)NC[C@H](NC(=O)c2ccc(Nc3nc(NC4(c5ccc(Cl)cc5)CC4)nc(OCC(F)(F)F)n3)cc2)C(=O)O)cc1 [Compound 1362] | 0.3 |

same assay, conditions: Hepatitis C virus, Huh-7, 48 h, HCV pseudoparticles (genotype 1a, H77C) in Huh7 cells; average of duplicate; luciferase 2 days after infection

| SMILES | EC50 [nM] |
| --- | --- |
| CC(C)(CNC(=O)C(=O)Nn1cccc1)CNC(=O)c1ccc(Nc2nc(NC3(c4ccc(Cl)cc4)CC3)nc(OCC(F)(F)F)n2)cc1 [Compound 3242] | 0.03 |
| C=Cc1ccc(NC(=O)C(=O)NCC[C@H](NC(=O)c2ccc(Nc3nc(NC4(c5ccc(Cl)cc5)CC4)nc(OCC(F)(F)F)n3)cc2)C(=O)OC)cc1 [Compound 3129] | 0.089 |
| CC(C)(CNC(=O)c1ccc(Nc2nc(NC3(c4ccc(Cl)cc4)CC3)nc(OCC(F)(F)F)n2)cc1)NC(=O)C(=O)NC1CCCCC1 [Compound 3436] | 0.081 |

same assay, conditions: Hepatitis C virus, Huh-7, 48 h, read-out: Activity (EC50 class), HCV pseudoparticle infection of Huh7 cells, luciferase 2 days after infection; EC50 expressed as class A/B

| SMILES | EC50 [nM] |
| --- | --- |
| COCC(NC(=O)C(=O)NCC[C@H](NC(=O)c1ccc(Nc2nc(NC3(c4ccc(Cl)cc4)CC3)nc(OCC(F)(F)F)n2)cc1)C(=O)O)C1CC1 (some centres unmarked) [Compound 1441] | 0.01 to 10 |
| C[C@]12C3C1[C@H]3C[C@H]2NC(=O)C(=O)NC[C@H](NC(=O)c1ccc(Nc2nc(NC3(c4ccc(Cl)cc4)CC3)nc(OCC(F)(F)F)n2)cc1)C(=O)O (some centres unmarked) [Compound 1084] | 0.01 to 10 |
| CCC(C)CNC(=O)C(=O)NC[C@@H](NC(=O)c1ccc(Nc2nc(NC3(c4ccc(Cl)cc4)CC3)nc(OCC(F)(F)F)n2)cc1)C(=O)O (some centres unmarked) [Compound 1044] | 0.01 to 10 |
| O=C(NCC1CCCOC1)C(=O)NC[C@H](NC(=O)c1ccc(Nc2nc(NC3(c4ccc(Cl)cc4)CC3)nc(OCC(F)(F)F)n2)cc1)C(=O)O (some centres unmarked) [Compound 1470] | 0.01 to 10 |
| O=C(NCC[C@H](NC(=O)c1ccc(Nc2nc(NC3(c4ccc(Cl)cc4)CC3)nc(OCC(F)(F)F)n2)cc1)C(=O)O)C(=O)Nc1ccc(F)c(F)c1F [Compound 1509] | 0.01 to 10 |
| COC(=O)[C@H](CNC(=O)C(=O)NCC1CCc2ccccc21)NC(=O)c1ccc(Nc2nc(NC3(c4ccc(Cl)cc4)CC3)nc(OCC(F)(F)F)n2)cc1 (some centres unmarked) [Compound 1303] | 0.01 to 10 |
| COC(=O)[C@H](CCNC(=O)C(=O)Nc1ccc(-c2ccccc2)c(OC)c1)NC(=O)c1ccc(Nc2nc(NC3(c4ccc(Cl)cc4)CC3)nc(OCC(F)(F)F)n2)cc1 [Compound 1518] | 0.01 to 10 |
| CC(C)(CNC(=O)C(=O)N1CCc2ccccc2C1)CNC(=O)c1ccc(Nc2nc(NC3(c4ccc(Cl)cc4)CC3)nc(OCC(F)(F)F)n2)cc1 [Compound 1545] | 0.01 to 10 |
| COC(=O)[C@H](CNC(=O)C(=O)NCc1cccc(OC)c1)NC(=O)c1ccc(Nc2nc(NC3(c4ccc(Cl)cc4)CC3)nc(OCC(F)(F)F)n2)cc1 [Compound 1151] | 0.01 to 10 |
| Cc1ccc(NC(=O)C(=O)NCC(C)(C)CNC(=O)c2ccc(Nc3nc(NC4(c5ccc(Cl)cc5)CC4)nc(OCC(F)(F)F)n3)cc2)cc1 [Compound 1536] | 0.01 to 10 |
| CC(C)(Cc1ccc(F)cc1)NC(=O)C(=O)NCC(NC(=O)c1ccc(Nc2nc(NC3(c4ccc(Cl)cc4)CC3)nc(OCC(F)(F)F)n2)cc1)C(=O)O (centres unmarked) [Compound 1408] | 0.01 to 10 |
| COC(=O)[C@H](CCNC(=O)C(=O)N[C@H]1C[C@H]1c1ccccc1)NC(=O)c1ccc(Nc2nc(NC3(c4ccc(Cl)cc4)CC3)nc(OCC(F)(F)F)n2)cc1 [Compound 1317] | 0.01 to 10 |
| C=Cc1ccc(NC(=O)C(=O)NCC(C)(C)CNC(=O)c2ccc(Nc3nc(NC4(c5ccc(Cl)cc5)CC4)nc(OCC(F)(F)F)n3)cc2)cc1 [Compound 1604] | 0.01 to 10 |
| O=C(NC[C@H](NC(=O)c1ccc(Nc2nc(NC3(c4ccc(Cl)cc4)CC3)nc(OCC(F)(F)F)n2)cc1)C(=O)O)C(=O)N[C@@H]1C[C@H]1c1ccccc1 [Compound 1406] | 0.01 to 10 |
| COC(=O)[C@H](CNC(=O)C(=O)NCCc1ccccc1)NC(=O)c1ccc(Nc2nc(NC3(c4ccc(Cl)cc4)CC3)nc(OCC(F)(F)F)n2)cc1 [Compound 1284] | 0.01 to 10 |
| O=C(NC[C@H]1CCC[C@H]1NC(=O)c1ccc(Nc2nc(NC3(c4ccc(Cl)cc4)CC3)nc(OCC(F)(F)F)n2)cc1)C(=O)Nc1ccc(F)cc1 [Compound 1474] | 0.01 to 10 |
| COCC(NC(=O)C(=O)NCC[C@H](NC(=O)c1ccc(Nc2nc(NC3(c4ccc(Cl)cc4)CC3)nc(OCC(F)(F)F)n2)cc1)C(=O)OC)C1CC1 (some centres unmarked) [Compound 1371] | 0.01 to 10 |
| COc1ccc(NC(=O)C(=O)NC[C@H](NC(=O)c2ccc(Nc3nc(NC4(c5ccc(Cl)cc5)CC4)nc(OCC(F)(F)F)n3)cc2)C(=O)O)cc1 [Compound 1362] | 0.01 to 10 |
| COC(=O)[C@H](CNC(=O)C(=O)NCc1ccc(OC)cc1)NC(=O)c1ccc(Nc2nc(NC3(c4ccc(Cl)cc4)CC3)nc(OCC(F)(F)F)n2)cc1 [Compound 1153] | 0.01 to 10 |
| NC(=O)C(=O)NCCC(NC(=O)c1ccc(Nc2nc(NC3(c4ccc(Cl)cc4)CC3)nc(OCC(F)(F)F)n2)cc1)C(=O)O (stereo in doubt) [Compound 1013, (S)-4-(2-amino-2-oxoacetamido)-2-(4-(4-(1-(4-chlorophenyl)cyclopropylamino)-6-(2,2,2-trifluoroethoxy)-1,3,5-triazin-2-ylamino)benzamido)butanoic acid] | 0.01 to 10 |
| COc1ccccc1CCNC(=O)C(=O)NC[C@H](NC(=O)c1ccc(Nc2nc(NC3(c4ccc(Cl)cc4)CC3)nc(OCC(F)(F)F)n2)cc1)C(=O)O [Compound 1397] | 0.01 to 10 |
| O=C(NCC[C@H](NC(=O)c1ccc(Nc2nc(NC3(c4ccc(Cl)cc4)CC3)nc(OCC(F)(F)F)n2)cc1)C(=O)O)C(=O)NCC1(CN2CCOCC2)CC1 [Compound 1426] | 0.01 to 10 |
| COC(=O)[C@H](CCNC(=O)C(=O)NC1CC(C)(C)CC(C)(C)C1)NC(=O)c1ccc(Nc2nc(NC3(c4ccc(Cl)cc4)CC3)nc(OCC(F)(F)F)n2)cc1 [Compound 1071] | 0.01 to 10 |

same assay, conditions: Hepatitis C virus, Huh-7, 48 h, read-out: Activity (EC50 class), HCV pseudoparticles, Huh7 cells, luciferase 2 days after infection; average of duplicates

| SMILES | EC50 [nM] |
| --- | --- |
| CC(C)(CNC(=O)C(=O)Nc1nc2c(Cl)ccc(Cl)c2s1)CNC(=O)c1ccc(Nc2nc(NC3(c4ccc(Cl)cc4)CC3)nc(OCC(F)(F)F)n2)cc1F [Compound 3681] | 0.01 to 10 |
| Cc1cc2nc(NC(=O)C(=O)NCC(C)(C)CNC(=O)c3ccc(Nc4nc(NC5(c6ccc(Cl)cc6)CC5)nc(OCC(F)(F)F)n4)cc3)sc2cc1C [Compound 3820] | 0.01 to 10 |
| CC(C)c1ccc(COc2nc(Nc3ccc(C(=O)NCC(C)(C)CNC(=O)C(=O)Nc4ccccc4-c4ccccc4)c(F)c3)nc(NC3(c4ccc(Cl)cc4)CC3)n2)cc1 [Compound 3830, N^1-([1, 1′-biphenyl]-2-yl)-N^2-(3-(4-((4-((1-(4-chlorophenyl)cyclopropyl)amino)-6-((4-isopropylbenzyl)oxy)-1,3,5-triazin-2-yl)amino)-2-fluorobenzamido)-2,2-dimethylpropyl)oxalamide] | 0.01 to 10 |

same assay, conditions: Hepatitis C virus, Huh-7, read-out: Activity (EC50 class), HCV pseudoparticles (genotype 1a, H77C) in Huh7 cells; EC50 expressed as class A/B

| SMILES | EC50 [nM] |
| --- | --- |
| CCc1ccccc1NC(=O)C(=O)NCC(C)(C)CNC(=O)c1ccc(Nc2nc(NC3(c4ccc(Cl)cc4)CC3)nc(OCC(F)(F)F)n2)cc1 [Compound 3047] | 0.01 to 10 |
| O=C(Nc1cc(F)cc(F)c1)C(=O)N1CCCC(CNC(=O)c2ccc(Nc3nc(NC4(c5ccc(Cl)cc5)CC4)nc(OCC(F)(F)F)n3)cc2)C1 (centres unmarked) [Compound 3485] | 0.01 to 10 |
| CC(C)(CNC(=O)C(N)=O)CNC(=O)c1ccc(Nc2nc(NC3(c4ccc(Cl)cc4)CC3)nc(OCC(F)(F)F)n2)cc1O [Compound 3389] | 0.01 to 10 |
| CC(C)(CNC(=O)C(N)=O)CNC(=O)c1ccc(Nc2nc(NC3(c4ccc(Cl)cc4)CC3)nc(OCC(F)(F)F)n2)cc1-c1ccccc1 [Compound 3511] | 0.01 to 10 |
| COc1cccc(-c2ccccc2NC(=O)C(=O)NCC(C)(C)CNC(=O)c2ccc(Nc3nc(NC4(c5ccc(Cl)cc5)CC4)nc(OCC(F)(F)F)n3)cc2)c1 [Compound 3049] | 0.01 to 10 |
| O=C(NC[C@H](NC(=O)c1ccc(Nc2nc(NC3(c4ccc(Cl)cc4)CC3)nc(OCC(F)(F)F)n2)cc1)C(=O)O)C(=O)Nc1ccc(Cn2cncn2)cc1 [Compound 3267] | 0.01 to 10 |
| CC(C)(CNC(=O)C(=O)Nn1cccc1)CNC(=O)c1ccc(Nc2nc(NC3(c4ccc(Cl)cc4)CC3)nc(OCC(F)(F)F)n2)cc1 [Compound 3242] | 0.01 to 10 |
| COC(=O)[C@@H](CCNC(=O)C(=O)Nc1ccc(Cl)nc1)NC(=O)c1ccc(Nc2nc(NC3(c4ccc(Cl)cc4)CC3)nc(OCC(F)(F)F)n2)cc1 [Compound 3570] | 0.01 to 10 |
| C=Cc1ccc(NC(=O)C(=O)NCC[C@H](NC(=O)c2ccc(Nc3nc(NC4(c5ccc(Cl)cc5)CC4)nc(OCC(F)(F)F)n3)cc2)C(=O)OC)cc1 [Compound 3129] | 0.01 to 10 |
| CC(C)(CNC(=O)c1ccc(Nc2nc(NC3(c4ccc(Cl)cc4)CC3)nc(OCC(F)(F)F)n2)cc1)NC(=O)C(=O)NC1CCCCC1 [Compound 3436] | 0.01 to 10 |
| COC(=O)[C@H](CCNC(=O)C(=O)Nc1ccc(C(C)(C)C)cc1)NC(=O)c1ccc(Nc2nc(NC3(c4ccc(Cl)cc4)CC3)nc(OCC(F)(F)F)n2)cc1 [Compound 3329] | 0.01 to 10 |
| O=C(NCCCN(CCO)C(=O)C(=O)N1CCCCC1)c1ccc(Nc2nc(NC3(c4ccc(Cl)cc4)CC3)nc(OCC(F)(F)F)n2)cc1 [Compound 3509] | 0.01 to 10 |
| CN(CCCN(C)C(=O)c1ccc(Nc2nc(NC3(c4ccc(Cl)cc4)CC3)nc(OCC(F)(F)F)n2)cc1)C(=O)C(=O)Nc1cc(F)cc(F)c1 [Compound 3427] | 0.01 to 10 |
| Cc1cc(Cl)ccc1NC(=O)C(=O)NCC(C)(C)CNC(=O)c1ccc(Nc2nc(NC3(c4ccc(Cl)cc4)CC3)nc(OCC(F)(F)F)n2)cc1 [Compound 3057] | 0.01 to 10 |
| CC(C)(CNC(=O)C(=O)Nc1ccc(C[Si](C)(C)C)cc1)CNC(=O)c1ccc(Nc2nc(NC3(c4ccc(Cl)cc4)CC3)nc(OCC(F)(F)F)n2)cc1 [Compound 3054] | 0.01 to 10 |
| CC(C)(CNC(=O)C(=O)Nc1ccc2cc[nH]c2c1)CNC(=O)c1ccc(Nc2nc(NC3(c4ccc(Cl)cc4)CC3)nc(OCC(F)(F)F)n2)cc1 [Compound 3337] | 0.01 to 10 |
| COC(=O)[C@H](CNC(=O)C(=O)Nc1ccc(-n2ccc(C(F)(F)F)n2)cc1)NC(=O)c1ccc(Nc2nc(NC3(c4ccc(Cl)cc4)CC3)nc(OCC(F)(F)F)n2)cc1 [Compound 3098] | 0.01 to 10 |
| COC(=O)[C@H](CNC(=O)C(=O)Nc1ccc(S(=O)(=O)N2CCCC2)cc1)NC(=O)c1ccc(Nc2nc(NC3(c4ccc(Cl)cc4)CC3)nc(OCC(F)(F)F)n2)cc1 [Compound 3106] | 0.01 to 10 |
| COc1ccc(NC(=O)C(=O)NCC(C)(C)CNC(=O)c2ccc(Nc3nc(NC4(c5ccc(Cl)cc5)CC4)nc(OCC(F)(F)F)n3)cc2F)cc1 [Compound 3557] | 0.01 to 10 |
| CC(C)(CNC(=O)C(=O)Nc1ccc(C(=O)c2ccccc2)cc1)CNC(=O)c1ccc(Nc2nc(NC3(c4ccc(Cl)cc4)CC3)nc(OCC(F)(F)F)n2)cc1 [Compound 3142] | 0.01 to 10 |
